# Key:
# Format in all cases: cell-based
# hENT1 (SLC29A1) = target: T1, hENT1 (SLC29A1) (Homo sapiens, UniProt Q99808); assay: Inhibition of [^3H]uridine uptake in yeast cells producing recombinant hENT1; conditions: inhibition of 1 µmol/L [^3H]uridine transport, yeast, 0–3 mM test compound, mean ± SE, n = 2–3; NI = no interaction
# T1 construct: expressed in transfected cells; host or cells: Saccharomyces cerevisiae
# T1 sequence (Q99808 1-456): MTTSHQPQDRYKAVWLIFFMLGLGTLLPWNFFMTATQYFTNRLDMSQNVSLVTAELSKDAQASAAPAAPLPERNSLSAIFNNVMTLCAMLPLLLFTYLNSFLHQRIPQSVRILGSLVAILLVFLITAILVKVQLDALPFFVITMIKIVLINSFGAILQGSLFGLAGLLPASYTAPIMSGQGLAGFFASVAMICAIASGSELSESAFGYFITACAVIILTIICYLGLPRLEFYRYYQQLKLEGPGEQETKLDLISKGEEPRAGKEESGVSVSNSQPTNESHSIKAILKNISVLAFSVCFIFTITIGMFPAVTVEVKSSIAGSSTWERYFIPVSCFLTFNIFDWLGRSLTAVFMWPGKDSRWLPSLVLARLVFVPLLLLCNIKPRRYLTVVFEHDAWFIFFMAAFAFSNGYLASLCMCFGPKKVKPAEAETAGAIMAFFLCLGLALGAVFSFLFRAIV
# Method: (§1) The interaction of 2-nitroimidazole sugars with nucleoside transporters was determined by ability of the 2-nitroimidazole sugars to inhibit [^3H]uridine uptake in yeast cells producing recombinant human nucleoside transporters and results expressed as IC50 values.
# (§2) Saccharomyces cerevisiae yeast was separately transformed with plasmids (pYPhENT1, pYPhENT2, pYPhCNT1, pYPhCNT2, or pYPhCNT3) encoding hNTs (hENT1, hENT2, hCNT1, hCNT2, or hCNT3, respectively) as described elsewhere. Uptake of 1 µmol/L [^3H]uridine (Moravek Biochemicals) into yeast was measured as previously described using a semi-automated cell harvester (Micro96 HARVESTER; Skatron Instruments, Tranby, Norway). Yeast was incubated at room temperature with 1 µmol/L [^3H]uridine in yeast growth media (pH 7.4) in the presence or absence (uninhibited controls) of graded concentrations (0–3 mM) of test compounds. The following compounds were used for transporter experiments: FAZA, β-FAZA, α-FAZDR, β-FAZDR. Uridine self-inhibition was used to determine maximum inhibition of mediated transport. Concentration–effect curves were subjected to nonlinear regression analysis using Prism software (version 4.03; GraphPad Software Inc.) to obtain the concentration of test compound that inhibited uridine uptake by 50%, relative to that of untreated cells (IC50 values). Each IC50 value determination was conducted with nine concentrations and four replicates per concentration and experiments were repeated two to three times.
# hENT2 (SLC29A2) = target: T2, hENT2 (SLC29A2) (Homo sapiens, UniProt Q14542); assay: Inhibition of [^3H]uridine uptake in yeast cells producing recombinant hENT2; conditions: inhibition of 1 µmol/L [^3H]uridine transport, yeast, 0–3 mM test compound, mean ± SE, n = 2–3; NI = no interaction
# T2 construct: expressed in transfected cells; host or cells: Saccharomyces cerevisiae
# T2 sequence (Q14542 1-456): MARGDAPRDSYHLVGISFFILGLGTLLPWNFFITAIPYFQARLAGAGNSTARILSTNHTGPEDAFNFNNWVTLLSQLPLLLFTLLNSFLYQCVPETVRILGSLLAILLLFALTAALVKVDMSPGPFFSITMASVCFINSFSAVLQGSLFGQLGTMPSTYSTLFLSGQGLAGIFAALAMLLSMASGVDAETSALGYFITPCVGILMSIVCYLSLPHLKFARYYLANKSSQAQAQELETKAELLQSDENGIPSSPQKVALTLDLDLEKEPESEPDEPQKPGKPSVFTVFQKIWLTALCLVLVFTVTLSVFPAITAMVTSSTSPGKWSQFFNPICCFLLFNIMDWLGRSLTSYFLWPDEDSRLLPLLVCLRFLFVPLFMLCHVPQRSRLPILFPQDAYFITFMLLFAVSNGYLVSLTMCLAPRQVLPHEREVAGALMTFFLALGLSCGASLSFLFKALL
# Method: as §1, §2
# hCNT1 (SLC28A1) = target: T3, hCNT1 (SLC28A1) (Homo sapiens, UniProt O00337); assay: Inhibition of [^3H]uridine uptake in yeast cells producing recombinant hCNT1
# T3 construct: expressed in transfected cells; host or cells: Saccharomyces cerevisiae
# T3 sequence (O00337 1-649): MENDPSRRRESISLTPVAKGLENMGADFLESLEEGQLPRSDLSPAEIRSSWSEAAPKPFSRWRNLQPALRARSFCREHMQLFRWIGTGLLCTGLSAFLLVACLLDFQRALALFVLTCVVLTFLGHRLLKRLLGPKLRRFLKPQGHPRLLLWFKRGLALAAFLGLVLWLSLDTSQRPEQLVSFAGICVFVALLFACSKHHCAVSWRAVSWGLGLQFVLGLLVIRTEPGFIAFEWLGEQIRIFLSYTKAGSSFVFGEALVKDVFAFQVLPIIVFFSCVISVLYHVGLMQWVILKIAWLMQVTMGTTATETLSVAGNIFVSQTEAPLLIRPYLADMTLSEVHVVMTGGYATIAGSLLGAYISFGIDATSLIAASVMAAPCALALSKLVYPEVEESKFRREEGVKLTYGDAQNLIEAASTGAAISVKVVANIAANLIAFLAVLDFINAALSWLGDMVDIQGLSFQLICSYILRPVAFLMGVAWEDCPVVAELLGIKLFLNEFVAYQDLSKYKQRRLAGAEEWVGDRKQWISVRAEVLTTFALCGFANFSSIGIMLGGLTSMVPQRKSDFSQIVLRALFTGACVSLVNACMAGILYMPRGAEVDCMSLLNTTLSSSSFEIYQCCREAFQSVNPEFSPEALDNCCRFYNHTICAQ
# Method: as §1, §2
# hCNT2 (SLC28A2) = target: T4, hCNT2 (SLC28A2) (Homo sapiens, UniProt O43868); assay: Inhibition of [^3H]uridine uptake in yeast cells producing recombinant hCNT2
# T4 construct: expressed in transfected cells; host or cells: Saccharomyces cerevisiae
# T4 sequence (O43868 1-658): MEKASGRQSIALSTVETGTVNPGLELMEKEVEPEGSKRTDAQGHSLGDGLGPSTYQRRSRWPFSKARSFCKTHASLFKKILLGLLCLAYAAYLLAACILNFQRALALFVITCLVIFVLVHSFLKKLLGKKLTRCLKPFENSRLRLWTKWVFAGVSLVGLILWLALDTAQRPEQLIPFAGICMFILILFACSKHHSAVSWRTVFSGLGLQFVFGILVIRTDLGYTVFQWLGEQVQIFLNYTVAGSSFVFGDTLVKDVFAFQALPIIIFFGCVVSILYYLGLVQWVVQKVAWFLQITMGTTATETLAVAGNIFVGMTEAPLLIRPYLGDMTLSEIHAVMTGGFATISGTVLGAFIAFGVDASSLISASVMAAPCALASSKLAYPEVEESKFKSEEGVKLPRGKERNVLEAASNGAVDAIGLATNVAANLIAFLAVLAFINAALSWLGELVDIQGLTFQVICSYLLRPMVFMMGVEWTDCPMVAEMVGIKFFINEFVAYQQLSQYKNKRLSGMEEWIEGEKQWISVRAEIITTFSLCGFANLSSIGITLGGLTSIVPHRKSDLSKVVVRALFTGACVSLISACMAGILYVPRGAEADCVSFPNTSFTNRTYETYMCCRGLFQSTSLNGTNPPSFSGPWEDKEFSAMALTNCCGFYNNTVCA
# Method: as §1, §2
# hCNT3 (SLC28A3) = target: T5, hCNT3 (SLC28A3) (Homo sapiens, UniProt Q9HAS3); assay: Inhibition of [^3H]uridine uptake in yeast cells producing recombinant hCNT3
# T5 construct: expressed in transfected cells; host or cells: Saccharomyces cerevisiae
# T5 sequence (Q9HAS3 1-691): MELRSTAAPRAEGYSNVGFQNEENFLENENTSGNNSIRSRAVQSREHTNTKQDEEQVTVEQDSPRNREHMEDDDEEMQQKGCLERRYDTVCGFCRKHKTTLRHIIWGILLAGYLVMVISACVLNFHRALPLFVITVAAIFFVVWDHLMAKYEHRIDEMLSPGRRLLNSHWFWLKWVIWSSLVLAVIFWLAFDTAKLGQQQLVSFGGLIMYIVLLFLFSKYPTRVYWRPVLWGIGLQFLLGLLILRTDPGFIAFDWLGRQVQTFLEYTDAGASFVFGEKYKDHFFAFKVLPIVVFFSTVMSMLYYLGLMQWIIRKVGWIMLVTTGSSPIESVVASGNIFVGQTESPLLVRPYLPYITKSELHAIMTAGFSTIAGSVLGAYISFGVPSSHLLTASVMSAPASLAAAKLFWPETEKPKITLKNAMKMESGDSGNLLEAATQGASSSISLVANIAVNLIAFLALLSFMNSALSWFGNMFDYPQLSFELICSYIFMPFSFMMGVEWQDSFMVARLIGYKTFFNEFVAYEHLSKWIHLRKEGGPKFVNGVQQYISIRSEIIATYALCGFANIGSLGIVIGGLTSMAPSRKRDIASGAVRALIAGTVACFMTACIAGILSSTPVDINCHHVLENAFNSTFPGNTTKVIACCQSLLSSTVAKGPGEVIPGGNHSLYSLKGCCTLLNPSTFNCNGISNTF
# Method: as §1, §2
smiles,measurement,setting,value
"O=[N+]([O-])c1nccn1[C@H]1O[C@H](CF)[C@@H](O)[C@@H]1O [FAZA, 1-(5′-deoxy-5′-fluoro-α-D-arabinofuranosyl)-2-nitroimidazole]",IC50,hENT1 (SLC29A1),> 3 mM
same,IC50 hENT1 (SLC29A1),hENT1 (SLC29A1),no interaction
same,IC50,hENT2 (SLC29A2),> 3 mM
same,IC50 hENT2 (SLC29A2),hENT2 (SLC29A2),no interaction
same,IC50,hCNT1 (SLC28A1),290 ± 44 µM
same,IC50,hCNT2 (SLC28A2),640 ± 10 µM
same,IC50,hCNT3 (SLC28A3),1.38 ± 0.1 mM

# Reference: PMC6469291, “2-Nitroimidazole-Furanoside Derivatives for Hypoxia Imaging—Investigation of Nucleoside Transporter Interaction, ^18F-Labeling and Preclinical PET Imaging” (Pharmaceuticals, 2019)
